Data: US11254663B2 (BRISTOL-MYERS SQUIBB COMPANY, priority 2019, dated 2022)

biological target: FXR (Homo sapiens (Human), UniProt Q96RI1); test: transient human FXR/Gal4-luciferase reporter assay; type: cell-based; conditions: not given
In short: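 Compound exposure ran overnight at 37 °C and activity was measured as luminescence with Steady-Glo reagent. The cells were a HEK293 line stably expressing firefly luciferase under five Gal4 response elements. They were transiently transfected, one night beforehand, with a plasmid encoding Gal4 DNA-binding domain fused to the human FXR ligand-binding domain.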

Chain of FXR (Q96RI1 262-486): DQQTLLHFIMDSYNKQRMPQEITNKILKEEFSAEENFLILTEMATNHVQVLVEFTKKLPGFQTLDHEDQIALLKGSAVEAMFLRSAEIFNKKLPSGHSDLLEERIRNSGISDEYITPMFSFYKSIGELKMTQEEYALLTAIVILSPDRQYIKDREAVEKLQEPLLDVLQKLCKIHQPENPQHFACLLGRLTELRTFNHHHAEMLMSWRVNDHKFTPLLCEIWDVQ

Row | Compound | EC50 [nM]
1 | O=C(N(CC12CCC(c3ccc(C(F)(F)F)cn3)(CC1)CC2)c1cccc(-c2ccc(OC(F)F)cc2)c1)C12CC(F)(C1)C2 [Example 493, N-(4′-(difluoromethoxy)-[1,1′-biphenyl]-3-yl)-3-fluoro-N-((4-(5-(trifluoromethyl)pyridin-2-yl)bicyclo[2.2.2]octan-1-yl)methyl)bicyclo[1.1.1]pentane-1-carboxamide] | 552
2 | COc1ncc(-c2cccc(N(CC34CCC(c5ccc(C(F)(F)F)cn5)(CC3)CC4)C(=O)C34CC(F)(C3)C4)c2)cn1 [Example 494, 3-fluoro-N-(3-(2-methoxypyrimidin-5-yl)phenyl)-N-((4-(5-(trifluoromethyl)pyridin-2-yl)bicyclo[2.2.2]octan-1-yl)methyl)bicyclo[1.1.1]pentane-1-carboxamide] | 516
3 | CCc1cnc(-c2cccc(N(CC34CCC(c5ccc(C(F)(F)F)cn5)(CC3)CC4)C(=O)C34CC(F)(C3)C4)c2)nc1 [Example 496, N-(3-(5-ethylpyrimidin-2-yl)phenyl)-3-fluoro-N-((4-(5-(trifluoromethyl)pyridin-2-yl)bicyclo[2.2.2]octan-1-yl)methyl)bicyclo[1.1.1]pentane-1-carboxamide] | 539
4 | CCc1ccc(-c2cccc(N(CC34CCC(c5ccc(C(F)(F)F)cn5)(CC3)CC4)C(=O)C34CC(F)(C3)C4)c2)cc1 [Example 497, N-(4′-ethyl-[1,1′-biphenyl]-3-yl)-3-fluoro-N-((4-(5-(trifluoromethyl)pyridin-2-yl)bicyclo[2.2.2]octan-1-yl)methyl)bicyclo[1.1.1]pentane-1-carboxamide] | 989
5 | CCOc1cnc(-c2cccc(N(CC34CCC(c5ccc(C(F)(F)F)cn5)(CC3)CC4)C(=O)C34CC(F)(C3)C4)c2)nc1 [Example 498, N-(3-(5-ethoxypyrimidin-2-yl)phenyl)-3-fluoro-N-((4-(5-(trifluoromethyl)pyridin-2-yl)bicyclo[2.2.2]octan-1-yl)methyl)bicyclo[1.1.1]pentane-1-carboxamide] | 524
6 | O=C(N(CC12CCC(c3ccc(C(F)(F)F)cn3)(CC1)CC2)c1cccc(-c2ncc(OC(F)F)cn2)c1)C12CC(F)(C1)C2 [Example 499, N-(3-(5-(difluoromethoxy)pyrimidin-2-yl)phenyl)-3-fluoro-N-((4-(5-(trifluoromethyl)pyridin-2-yl)bicyclo[2.2.2]octan-1-yl)methyl)bicyclo[1.1.1]pentane-1-carboxamide] | 135
7 | COc1cnc(-c2cccc(N(CC34CCC(c5ccc(C(F)(F)F)cn5)(CC3)CC4)C(=O)C34CC(F)(C3)C4)c2)nc1 [Example 500, 3-fluoro-N-(3-(5-methoxypyrimidin-2-yl)phenyl)-N-((4-(5-(trifluoromethyl)pyridin-2-yl)bicyclo[2.2.2]octan-1-yl)methyl)bicyclo[1.1.1]pentane-1-carboxamide] | 810
8 | CCOc1ncc(-c2cccc(N(CC34CCC(c5nc(C(C)(C)C)no5)(CC3)CC4)C(=O)[C@H]3C[C@@H](OC)C3)c2)cn1 [Example 502, (1S,3S)—N-((4-(3-(tert-butyl)-1,2,4-oxadiazol-5-yl)bicyclo[2.2.2]octan-1-yl)methyl)-N-(3-(2-ethoxypyrimidin-5-yl)phenyl)-3-methoxycyclobutane-1-carboxamide] | 689
9 | CCOc1ncc(-c2cccc(N(CC34CCC(c5nc(C(C)(C)C)no5)(CC3)CC4)C(=O)C3(C)COC3)c2)cn1 [Example 503, N-((4-(3-(tert-butyl)-1,2,4-oxadiazol-5-yl)bicyclo[2.2.2]octan-1-yl)methyl)-N-(3-(2-ethoxypyrimidin-5-yl)phenyl)-3-methyloxetane-3-carboxamide] | 1580
10 | CCOc1ncc(-c2cccc(N(CC34CCC(c5nc(C(C)(C)C)no5)(CC3)CC4)C(=O)C34CC(NC(=O)OC(C)(C)C)(C3)C4)c2)cn1 [Example 505, tert-butyl (3-(((4-(3-(tert-butyl)-1,2,4-oxadiazol-5-yl)bicyclo[2.2.2]octan-1-yl)methyl) (3-(2-ethoxypyrimidin-5-yl)phenyl)carbamoyl)bicyclo[1.1.1]pentan-1-yl)carbamate] | 621
11 | CCOc1ncc(-c2cccc(N(CC34CCC(c5nc(C(C)(C)C)no5)(CC3)CC4)C(=O)C34CC(N)(C3)C4)c2)cn1 [Example 506, 3-amino-N-((4-(3-(tert-butyl)-1,2,4-oxadiazol-5-yl)bicyclo[2.2.2]octan-1-yl)methyl)-N-(3-(2-ethoxypyrimidin-5-yl)phenyl)bicyclo[1.1.1]pentane-1-carboxamide] | 2370
12 | CCOc1ncc(-c2cccc(N(CC34CCC(c5nc(C(C)(C)C)no5)(CC3)CC4)C(=O)C3CC(O)(C(F)(F)F)C3)c2)cn1 [Example 507, (1S,3S)—N-((4-(3-(tert-butyl)-1,2,4-oxadiazol-5-yl)bicyclo[2.2.2]octan-1-yl)methyl)-N-(3-(2-ethoxypyrimidin-5-yl)phenyl)-3-hydroxy-3-(trifluoromethyl)cyclobutane-1-carboxamide] | 188
13 | CCOc1ncc(-c2cccc(N(CC34CCC(c5noc(C(C)(C)C)n5)(CC3)CC4)C(=O)C3CC(O)(C(F)(F)F)C3)c2)cn1 [Example 509, (1S,3S)—N-((4-(5-(tert-butyl)-1,2,4-oxadiazol-3-yl)bicyclo[2.2.2]octan-1-yl)methyl)-N-(3-(2-ethoxypyrimidin-5-yl)phenyl)-3-hydroxy-3-(trifluoromethyl)cyclobutane-1-carboxamide] | 230
14 | CCOc1ncc(-c2cccc(N(CC34CCC(c5noc(C(C)(C)C)n5)(CC3)CC4)C(=O)C3(C)COC3)c2)cn1 [Example 510, N-((4-(5-(tert-butyl)-1,2,4-oxadiazol-3-yl)bicyclo[2.2.2]octan-1-yl)methyl)-N-(3-(2-ethoxypyrimidin-5-yl)phenyl)-3-methyloxetane-3-carboxamide] | 974
15 | CCOc1ncc(-c2cccc(N(CC34CCC(c5noc(C(C)(C)C)n5)(CC3)CC4)C(=O)[C@H]3C[C@@H](OC)C3)c2)cn1 [Example 511, (1S,3S)—N-((4-(5-(tert-butyl)-1,2,4-oxadiazol-3-yl)bicyclo[2.2.2]octan-1-yl)methyl)-N-(3-(2-ethoxypyrimidin-5-yl)phenyl)-3-methoxycyclobutane-1-carboxamide] | 411

same assay, conditions: Gal4-hFXR fusion construct, HEK293 reporter cells; response relative to 8 μM GW-4064

Row | EC50 [nM] | Compound
16 | 271 | O=C(N(CC12CCC(c3ccc(C(F)(F)F)cn3)(CC1)CC2)c1cccc(-c2ccc(OC(F)F)cn2)c1)C12CC(F)(C1)C2 [Example 495, N-(3-(5-(difluoromethoxy)pyridin-2-yl)phenyl)-3-fluoro-N-((4-(5-(trifluoromethyl)pyridin-2-yl)bicyclo[2.2.2]octan-1-yl)methyl)bicyclo[1.1.1]pentane-1-carboxamide]
17 | 909 | CC(C)(C)c1nc(C23CCC(CN(c4cccc(-c5ccc(NS(C)(=O)=O)cc5)c4)C(=O)[C@H]4C[C@@](C)(O)C4)(CC2)CC3)no1 [Example 512, (cis)-N-((4-(5-(tert-butyl)-1,2,4-oxadiazol-3-yl)bicyclo[2.2.2]octan-1-yl)methyl)-3-hydroxy-3-methyl-N-(4′-(methylsulfonamido)-[1,1′-biphenyl]-3-yl)cyclobutane-1-carboxamide]
